{
  "source": "patent US20060035212A1",
  "about": "“Molecules inhibiting hepatitis c virus protein synthesis and method for screening same” (Universte Joseph Fourier, priority 2002, published 2006)",
  "molecules": {"B1": {"name": "RRMp116: recombinant RNA recognition motif of the eIF3 p116 subunit (SEQ ID 5), C-terminal His6-Tag (protein)", "chain": "MDRPQEADGIDSVIVVDNVPQVGPDRLEKLKNVIHKIFSKFGKITNDFYPEEDGKTKGYIFLEYASPAHAVDAVKNADGYKLDKQHTFRVNLFTDFDKYMTISDEW", "modifications": "C-terminal His6 tag; p116 175..279 corresponds to a portion (RRM) of eIF3 p116 subunit"}},
  "key": {"[1]": {"system": "HCV IRES-controlled Firefly luciferase synthesis in HeLa cells", "assay": "Bicistronic construct in HeLa cells: IRES-dependent (cap-independent) translation, Firefly luciferase", "assay_type": "cell-based", "conditions": "for IRES specificity of translation inhibition (in words): IRES-dependent versus cap-dependent translation, HeLa cells; for inhibition at 2000 µM: 2 mM", "protocol": "(§1) Bicistronic constructs consisting of a first cistron corresponding to the Renilla luciferase gene, followed by the IRES sequence, followed by a second cistron corresponding to the Firefly luciferase gene (pRluc-IRES-Fluc) are prepared in the following way. A plasmid pRL-SV40 (Promega) is linearized with Xba I and dephosphorylated. In parallel, the IRES is amplified with the Firefly luciferase gene by PCR, in the presence of complementary oligonucleotides containing the Xba I sites. The PCR products are then subcloned in plasmid pTrcHis2-TOPO (Invitrogen) in order to control the digestion. The ligation of the insert containing the IRES with the Firefly luciferase gene and the linearized vector pRL-SV40 is carried out using T4 DNA ligase (Biolabs).\n(§2) 10^7 HeLa cells suspended in serum-free DMEM are transfected with 1 to 2.5 μg of plasmid pRluc-IRES-Fluc by electroporation at […] for 30 milliseconds using a Gene Pulser (BioRad). […] The Renilla luciferase activity (cap-dependent translation) and that of the Firefly luciferase (cap-independent=viral translation) in the cell lysates is measured and compared by means of the Dual-luciferase assay (Promega) and of a Lumat LB9507 luminometer (Berthold)."}, "[2]": {"target": "T1, p116 RRM/consensus sequence of region II of the HCV IRES complex (Homo sapiens, UniProt P55884)", "T1 construct": "His6 (C); made in house; host or cells: E. coli BL21lysS", "assay": "In vitro screening assay: inhibition of binding of the RRM of p116 to the consensus sequence of region II of the IRES (nitrocellulose retention)", "design": "species or system HCV (IRES RNA); eIF3 p116 RRM cDNA from HeLa cells", "conditions": "for inhibition of the formation of the RNA-protein complex (in words): 4 different concentrations tested", "protocol": "(§3) Radiolabeled RNA fragments are obtained by in vitro transcription of the abovementioned templates in the presence of [α-32P]UTP. The RNA fragments are purified in a 6% acrylamide-urea gel and precipitated. The RNA pellets are taken up in 25 mM Tris-HCl, pH 7.4. In order to allow renaturation, the RNA was incubated at 65° C. in the abovementioned buffer for 5-7 min and then slowly cooled to ambient temperature. The renatured RNAs were incubated with increasing concentrations of protein in the same 25 mM Tris-HCl buffer, pH 7.4, at ambient temperature for 5 min.\nThe mixture of proteins and of RNA is then deposited onto a nitrocellulose membrane washed beforehand with the same buffer. The radioactivity of the filter containing the RNA-protein complexes was measured using a Trilux MicroBeta radioactivity counter (PerkinElmer). […]\nThe screening assay is carried out as follows. The RRM of p116 and the consensus sequence of region II are incubated in the presence of various aminoglycosides. The RNA mixture is then deposited onto a nitrocellulose membrane under the same conditions as in example 2."}, "[3]": {"system": "cap-controlled Renilla luciferase synthesis in HeLa cells", "assay": "Bicistronic construct in HeLa cells: cap-dependent translation, Renilla luciferase", "assay_type": "cell-based", "conditions": "for cap-dependent synthesis, % of control: 2.5 μg of pDNA (FIG. 9C)", "protocol": "as §1, §2"}, "entire IRES of HCV": {"target": "entire IRES of HCV", "assay": "Affinity of the RRM of p116 for the whole IRES by retention on nitrocellulose", "assay_type": "binding", "conditions": "25 mM Tris-HCl pH 7.4, read-out: apparent Kd", "protocol": "as §3\nThe mixture of proteins and of RNA is then deposited onto a nitrocellulose membrane washed beforehand with the same buffer. The radioactivity of the filter containing the RNA-protein complexes was measured using a Trilux MicroBeta radioactivity counter (PerkinElmer)."}, "[4]": {"conditions": "concentrations of 1, 2 and 5 mM"}},
  "note": "“Also recorded” adds a separate entry of the source. Where two headings read alike, the source gives them in different places.",
  "data": [
    {"molecule": "CN[C@@H]1[C@@H](O)[C@@H](O[C@@H]2[C@@H](O)[C@H](O[C@H]3O[C@H]([C@@H](C)O)[C@@H](O)[C@H](O)[C@H]3N)[C@@H](N)C[C@H]2N)OC[C@]1(C)O", "note": "[G418]", "values": [
      {"measurement": "IRES specificity of translation inhibition (in words)", "setting": "[1]", "result": "inhibit both the cap-dependent and IRES-dependent translation in an IRES-nonspecific manner"}
    ]},
    {"molecule": "NC[C@H]1O[C@H](O[C@H]2[C@H](O)[C@@H](O[C@H]3O[C@H](CO)[C@@H](O)[C@H](N)[C@H]3O)[C@H](N)C[C@@H]2N)[C@H](O)[C@@H](O)[C@@H]1O", "note": "[kanamycin A]", "values": [
      {"measurement": "inhibition of the p116 RRM/II complex", "setting": "[2]; 20 μM", "result": 0, "unit": "%"},
      {"measurement": "inhibition of the p116 RRM/II complex", "setting": "[2]; 40 μM", "result": 0, "unit": "%"},
      {"measurement": "inhibition of the p116 RRM/II complex", "setting": "[2]; 80 μM", "result": 0, "unit": "%"}
    ]},
    {"molecule": "NC[C@H]1O[C@H](O[C@H]2[C@H](O)[C@@H](O[C@H]3O[C@H](CO)[C@@H](O)[C@H](N)[C@H]3O)[C@H](N)C[C@@H]2N)[C@H](N)[C@@H](O)[C@@H]1O", "note": "[kanamycin B]", "values": [
      {"measurement": "inhibition of the p116 RRM/II complex", "setting": "[2]; 20 μM", "result": 22, "unit": "%"}
    ]},
    {"molecule": "NC[C@@H]1O[C@H](O[C@H]2[C@@H](O)[C@H](O[C@@H]3[C@@H](O)[C@H](N)C[C@H](N)[C@H]3O[C@H]3O[C@H](CO)[C@@H](O)[C@H](O)[C@H]3N)O[C@@H]2CO)[C@H](N)[C@@H](O)[C@@H]1O", "note": "[paramomycin]", "values": [
      {"measurement": "IRES specificity of translation inhibition (in words)", "setting": "[1]", "result": "moderately IRES-specific"},
      {"measurement": "inhibition of IRES-dependent translation", "setting": "[1]; [4]", "result": 37, "unit": "%"},
      {"measurement": "inhibition of cap-dependent translation", "setting": "[3]; [4]", "result": 6.3, "unit": "%"}
    ]},
    {"molecule": "[H]/N=C(/N)N[C@H]1[C@H](O)[C@@H](O)[C@H](O[C@@H]2O[C@@H](C)[C@](O)(C=O)[C@H]2O[C@@H]2O[C@@H](CO)[C@H](O)[C@@H](O)[C@@H]2NC)[C@@H](N/C(N)=N\\[H])[C@@H]1O", "note": "[streptomycin]", "values": [
      {"measurement": "IRES specificity of translation inhibition (in words)", "setting": "[1]", "result": "inhibits the translation of the two cistrons in an IRES-nonspecific manner"},
      {"measurement": "inhibition at 20 µM", "setting": "[2]; 20 μM", "result": 25, "unit": "%"},
      {"measurement": "inhibition at 40 µM", "setting": "[2]; 40 μM", "result": 36, "unit": "%"},
      {"measurement": "inhibition of the formation of the RNA-protein complex (in words)", "setting": "[2]", "result": "inhibit the formation of the RNA-protein complex at all the concentrations tested"}
    ]},
    {"molecule": "NC[C@H]1O[C@H](O[C@H]2[C@H](O)[C@@H](O[C@H]3O[C@H](CO)[C@@H](O)[C@H](N)[C@H]3O)[C@H](N)C[C@@H]2N)[C@H](N)C[C@@H]1O", "note": "[tobramycin]", "values": [
      {"measurement": "inhibition at 1000 µM", "setting": "[1]; Hepatitis C virus, HeLa, read-out: inhibition of the synthesis of the Firefly luciferase controlled by the IRES", "result": 90.4, "unit": "%"},
      {"measurement": "inhibition at 2000 µM", "setting": "[1]; Hepatitis C virus, HeLa, 1 μg of plasmid DNA (FIG. 9B), read-out: inhibition of IRES-luciferase synthesis", "result": 83, "unit": "%"},
      {"measurement": "inhibition at 2000 µM", "setting": "[1]; Hepatitis C virus, HeLa, 2.5 μg of pDNA (FIG. 9C), read-out: inhibition of the IRES-dependent translation", "result": 36.5, "unit": "%"},
      {"measurement": "inhibition at 5000 µM", "setting": "[1]; Hepatitis C virus, HeLa, 5 mM, 2.5 μg of pDNA (FIG. 9C)", "result": 69, "unit": "%"},
      {"measurement": "IRES specificity of translation inhibition (in words)", "setting": "[1]", "result": "the most specific inhibitor of the IRES-controlled translation"},
      {"measurement": "inhibition at 20 µM", "setting": "[2]; 20 μM", "result": 43, "unit": "%"},
      {"measurement": "inhibition at 40 µM", "setting": "[2]; 40 μM", "result": 54, "unit": "%"},
      {"measurement": "inhibition of the formation of the RNA-protein complex (in words)", "setting": "[2]", "result": "inhibit the formation of the RNA-protein complex at all the concentrations tested; also recorded: capable of dissociating the p116/II complex in vitro, at all the concentrations tested"},
      {"measurement": "synthesis of the Renilla luciferase (cap-controlled), % of the control", "setting": "[3]; 1 mM, 1 μg of plasmid DNA (FIG. 9B)", "result": "168 % of the control"},
      {"measurement": "cap-dependent synthesis, % of control", "setting": "[3]; 2 mM", "result": "268 % of control"},
      {"measurement": "cap-dependent synthesis, % of control", "setting": "[3]; 5 mM", "result": "134 % of control"},
      {"measurement": "inhibition at 2000 µM", "setting": "[3]; Renilla, HeLa, 2 mM, 1 μg of plasmid DNA (FIG. 9B)", "result": 27, "unit": "%"}
    ]},
    {"molecule": "B1", "values": [
      {"measurement": "Kd", "setting": "entire IRES of HCV", "result": 800, "unit": "nM"}
    ]}
  ]
}
